Legend:
[1] = system: human ES cell-derived neural progenitor cells; test: Quantitative PCR transcriptional profile after differentiation with retinoic acid
[2] = system: human ES cell-derived FOXA2 expressing neural progenitor cells; test: Immunocytochemistry and cell counts of FOXA2 expressing DA neurons at DIV49; type: cell-based
Protocol: Media were changed every 2 days.
Neural progenitor cells were differentiated toward the DA neuron phenotype with mouse sonic hedgehog (Shh-N), human activated sonic hedgehog (C24II SHH-N), mouse fibroblast growth factor 8b (FGF8b), human FGF8A (all from R&D Systems, Inc.), 20 ng/ml brain derived neurotrophic factor (BDNF) (PeproTech EC Ltd), 1 ng/ml transforming growth factor type β3 (TGF-β3) (Calbiochem, San Diego, Calif.), 10 ng/ml glial cell line-derived neurotrophic factor (GDNF), 0.5 mM dibutyryl cAMP, and 0.2 mM ascorbic acid (AA) (all from Sigma-Aldrich). After 21 days (Day 35) cells were passaged using Tryple (Invitrogen Corporation) and spun at 1,000 rpm for 5 minutes. Cells were resuspended in N2 medium and plated again at a density of approximately 1,000,000-2,000,000 cells per well (24 well plate) on polyornithine/laminin-coated dishes in the presence of BDNF, AA, SHH, and FGF8. After an additional 7 days of culture (DIV42), cells were differentiated until Day 49 without SHH and FGF8 but in the presence of BDNF, AA, cAMP, GDNF, and TGF-β3.
Cells were fixed in 4% paraformaldehyde and analyzed by indirect immunofluorescence (Sonntag et al., 2005). Fluorescent signals were examined using an LSM510 Meta confocal microscope equipped with ultraviolet, argon, and helium-neon lasers (Carl Zeiss, Thornwood, N.Y.). […]
Quantitative analysis of immunocytochemistry was performed on randomly selected confocal fields from at least two independent differentiation experiments. In each field, images of separate channels (Hoechst, 488, 568, 594) were acquired at 40× magnification on an integrated confocal microscope (LSM510/Meta, Carl Zeiss) and stereology workstation (StereoInvestigator, MBF Bioscience, Inc., Williston, Vt.), where images of cells in independent channels and merged images were counted.

## CC1=C(/C=C/C(C)=C/C=C/C(C)=C/C(=O)O)C(C)(C)CCC1 [RA, all-trans retinoic acid]
[1]; 10^-6 M and 10^-7 M RA, 22 days of differentiation, relative to conditions without RA
  OTX2, PAX2 and HOXB1 levels: reduced OTX2 and PAX2 levels and increased HOXB1 levels
[1]; 10^-8 M RA, 22 days of differentiation, relative to conditions without RA
  increase of expression levels of the midbrain transcription factor EN1: more than 2000 fold
[1]; all RA conditions tested (0, 10^-6 to 10^-9 M)
  expression levels of the ventral neural transcription factor FOXA2: consistently low

B1: WNT1: secreted signaling protein encoded by the human WNT1 proto-oncogene; recombinant (protein, UniProt P04628 28-370, looked up)
Proto-oncogene Wnt-1: ANSSGRWWGIVNVASSTNLLTDSKSLQLVLEPSLQLLSRKQRRLIRQNPGILHSVSGGLQSAVRECKWQFRNRRWNCPTAPGPHLFGKIVNRGCRETAFIFAITSAGVTHSVARSCSEGSIESCTCDYRRRGPGGPDWHWGGCSDNIDFGRLFGREFVDSGEKGRDLRFLMNLHNNEAGRTTVFSEMRQECKCHGMSGSCTVRTCWMRLPTLRAVGDVLRDRFDGASRVLYGNRGSNRASRAELLRLEPEDPAHKPPSPHDLVYFEKSPNFCTYSGRLGTAGTAGRACNSSSPALDGCELLCCGRGHRTRTQRVTERCNCTFHWCCHVSCRNCTHTRVLHECL
[2]; DIV49, cultures grown without WNT1 during first 14 days
  cells coexpressing FOXA2, TH and β-tubulin: did not contain cells that coexpressed FOXA2, TH, and β-tubulin

B2: Noggin: recombinant Noggin protein (R&D Systems) (protein, UniProt Q13253 28-232, looked up)
Noggin: QHYLHIRPAPSDNLPLVDLIEHPDPIFDPKEKDLNETLLRSLLGGHYDPGFMATSPPEDRPGGGGGAAGGAEDLAELDQLLRQRPSGAMPSEIKGLEFSEGLAQGKKQRLSKKLRRKLQMWLWSQTFCPVLYAWNDLGSRFWPRYVKVGSCFSKRSCSVPEGMVCKPSKSVHLTVLRWRCQRRGGQRCGWIPIQYPIISECKCSC
[2]; DIV49, cultures grown with Noggin alone during first 14 days
  cells coexpressing FOXA2, TH and β-tubulin: did not contain cells that coexpressed FOXA2, TH, and β-tubulin
[2]; DIV49, cultures grown with or without Noggin during first 14 days (with WNT1)
  cells coexpressing FOXA2, TH and β-tubulin: contained cells that coexpressed FOXA2, TH and β-tubulin
